Laboratory results as given in patent EP2065382A1, “CGRP antagonists” (Boehringer Ingelheim Pharma GmbH & Co. KG, priority 2007, dated 2009).
Where two headings read alike, the source gives them in different places.

Target: T1, humanen CGRP-Rezeptor (Homo sapiens, UniProt O60894+Q16602)
T1 construct: SK-N-MC-Zellen werden in "Dulbecco's modified Eagle Medium" kultiviert; endogenous in cells; host or cells: SK-N-MC cells (membrane homogenate)
Assay: Binding studies with SK-N-MC cells expressing the human CGRP receptor (125I-CGRP displacement on membrane homogenate)
Conditions: 50 pM 125I-Iodotyrosyl-CGRP, 180 min at room temperature
Method: A. Bindungsstudien mit (den humanen CGRP-Rezeptor exprimierenden) SK-N-MC-Zellen
SK-N-MC-Zellen werden in "Dulbecco's modified Eagle Medium" kultiviert. Das Medium konfluenter Kulturen wird entfernt. Die Zellen werden zweimal mit PBS-Puffer (Gibco 041-04190 M) gewaschen, durch Zugabe von PBS-Puffer, versetzt mit 0.02% EDTA, abgelöst und durch Zentrifugation isoliert. Nach Resuspension in 20 ml "Balanced Salts Solution" [BSS (in mM): NaCl 120, KCl 5.4, NaHCO3 16.2, MgSO4 0.8, NaHPO4 1.0, CaCl2 1.8, D-Glucose 5.5, HEPES 30, pH 7.40] werden die Zellen zweimal bei 100 x g zentrifugiert und in BSS resuspendiert. Nach Bestimmung der Zellzahl werden die Zellen mit Hilfe eines Ultra-Turrax homogenisiert und für 10 Minuten bei 3000 x g zentrifugiert. Der Überstand wird verworfen und das Pellet in Tris-Puffer (10 mM Tris, 50 mM NaCl, 5 mM MgCl2, 1 mM EDTA, pH 7.40), angereichert mit 1% Rinderserum-Albumin und 0.1% Bacitracin, rezentrifugiert und resuspendiert (1 ml / 1000000 Zellen). Das Homogenat wird bei -80°C eingefroren. Die Membranpräparationen sind bei diesen Bedingungen für mehr als 6 Wochen stabil.
Nach Auftauen wird das Homogenat 1:10 mit Assay-Puffer (50 mM Tris, 150 mM NaCl, 5 mM MgCl2, 1 mM EDTA, pH 7.40) verdünnt und 30 Sekunden lang mit einem Ultra-Turrax homogenisiert. 230 µl des Homogenats werden für 180 Minuten bei Raumtemperatur mit 50 pM ^125I-Iodotyrosyl-Calcitonin-Gene-Related Peptide (Amersham) und ansteigenden Konzentrationen der Testsubstanzen in einem Gesamtvolumen von 250 µl inkubiert. Die Inkubation wird durch rasche Filtration durch mit Polyethylenimin (0.1%) behandelte GF/B-Glasfaserfilter mittels eines Zellharvesters beendet. Die an Protein gebundene Radioaktivität wird mit Hilfe eines Gammacounters bestimmt. Als nichtspezifische Bindung wird die gebundene Radioaktivität nach Gegenwart von 1 µM humanem CGRP-alpha während der Inkubation definiert.
Die Analyse der Konzentrations-Bindungskurven erfolgt mit Hilfe einer computergestützten nichtlinearen Kurvenanpassung.

T1 sequence (Q16602 23-461): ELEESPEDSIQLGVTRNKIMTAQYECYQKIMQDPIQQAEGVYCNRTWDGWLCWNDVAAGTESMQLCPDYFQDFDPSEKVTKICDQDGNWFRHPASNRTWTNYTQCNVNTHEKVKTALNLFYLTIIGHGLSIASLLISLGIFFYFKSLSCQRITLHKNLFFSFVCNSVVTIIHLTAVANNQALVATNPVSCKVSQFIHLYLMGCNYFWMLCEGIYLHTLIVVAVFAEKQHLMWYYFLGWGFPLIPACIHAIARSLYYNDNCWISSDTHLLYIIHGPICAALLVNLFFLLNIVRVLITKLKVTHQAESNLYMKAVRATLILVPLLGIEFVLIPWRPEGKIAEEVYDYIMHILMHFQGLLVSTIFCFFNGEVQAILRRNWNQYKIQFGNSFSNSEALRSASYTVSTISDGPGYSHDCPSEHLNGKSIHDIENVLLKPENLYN
T1 sequence (O60894 27-148): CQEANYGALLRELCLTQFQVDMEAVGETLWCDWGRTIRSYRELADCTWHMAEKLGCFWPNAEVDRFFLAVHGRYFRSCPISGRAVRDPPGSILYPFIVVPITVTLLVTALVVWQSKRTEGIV

Ki (read-out: Ki) [nM] | SMILES | Ki [nM]
– | Cn1cc(C(=O)c2cc(N3CCC(n4cc(-c5ccccc5)[nH]c4=O)CC3)ncn2)c2ccccc21 [(14)] | 6
– | Cn1cc(C(=O)c2cc(N3CCC(n4c(=O)[nH]c5ncccc54)CC3)ncn2)c2ccc(F)cc21 [(21)] | 2
25 | Cc1ccc2c(C(=O)c3cc(N4CCC(n5c(=O)[nH]c6ncccc65)CC4)ncn3)cn(C)c2c1 [(30)] | –
– | O=C(c1cc(N2CCC(n3c(=O)[nH]c4ncccc43)CC2)ncn1)c1cn(CCCN2CCCCC2)c2ccccc12 [(25)] | 16
5 | Cn1cc(C(=O)c2cc(N3CCC(n4c(=O)[nH]c5ncccc54)CC3)ncn2)c2ccccc21 [(2)] | –
– | O=C(c1cc(N2CCC(n3c(=O)[nH]c4ncccc43)CC2)ncn1)c1c[nH]c2ccccc12 [(1)] | 120
– | CN(C)CCCn1cc(C(=O)c2cc(N3CCC(n4c(=O)[nH]c5ncccc54)CC3)ncn2)c2ccccc21 [(42)] | 6
– | Cn1cc(C(=O)c2cc(N3CCC(n4c(=O)[nH]c5ccccc54)CC3)ncn2)c2ccccc21 [(9)] | 251
– | COc1ccc2c(c1)CCN(C1CCN(c3cc(C(=O)c4cn(C)c5ccccc45)ncn3)CC1)C(=O)N2 [(4)] | 4
